Six compounds from US8377939B2, “Oxadiazole derivatives and their use as metabotropic glutamate receptor potentiators 842” (AstraZeneca AB, priority 2007, dated 2013) can be followed below.

Molecules are shown by their SMILES. Converted amounts (≈) assume the structure as drawn.

For one series, the target named is hERG ion channel (Homo sapiens, UniProt Q12809). Kind of series: hERG activity (process of Bridgland-Taylor et al.). Type of series: cell-based. The method, then:
hERG activity was assessed using the process described by Bridgland-Taylor, M. H., et al, J. Pharm. Tox. Methods 54 (2006) 189-199.
Background: The hERG channel carries a current that helps repolarise heart muscle cells.

A short description of series [1]: Aqueous solubility in pH 7.4 phosphate buffer. To be noted: thermodynamic from solid, equilibration 24 h at 25° C. Type of series: physicochemical. As to the method:
Solubility was determined in pH 7.4 phosphate buffer after equilibration for 24 h at 25° C. and HPLC-UV and LC-MSMS were used for quantitation.

The next series deals with T1, human mGluR2 (Homo sapiens, UniProt Q14416).
T1 construct: expressed in transfected cells; host or cells: CHO cells, stably transfected; membranes
T1 sequence (Q14416 19-872): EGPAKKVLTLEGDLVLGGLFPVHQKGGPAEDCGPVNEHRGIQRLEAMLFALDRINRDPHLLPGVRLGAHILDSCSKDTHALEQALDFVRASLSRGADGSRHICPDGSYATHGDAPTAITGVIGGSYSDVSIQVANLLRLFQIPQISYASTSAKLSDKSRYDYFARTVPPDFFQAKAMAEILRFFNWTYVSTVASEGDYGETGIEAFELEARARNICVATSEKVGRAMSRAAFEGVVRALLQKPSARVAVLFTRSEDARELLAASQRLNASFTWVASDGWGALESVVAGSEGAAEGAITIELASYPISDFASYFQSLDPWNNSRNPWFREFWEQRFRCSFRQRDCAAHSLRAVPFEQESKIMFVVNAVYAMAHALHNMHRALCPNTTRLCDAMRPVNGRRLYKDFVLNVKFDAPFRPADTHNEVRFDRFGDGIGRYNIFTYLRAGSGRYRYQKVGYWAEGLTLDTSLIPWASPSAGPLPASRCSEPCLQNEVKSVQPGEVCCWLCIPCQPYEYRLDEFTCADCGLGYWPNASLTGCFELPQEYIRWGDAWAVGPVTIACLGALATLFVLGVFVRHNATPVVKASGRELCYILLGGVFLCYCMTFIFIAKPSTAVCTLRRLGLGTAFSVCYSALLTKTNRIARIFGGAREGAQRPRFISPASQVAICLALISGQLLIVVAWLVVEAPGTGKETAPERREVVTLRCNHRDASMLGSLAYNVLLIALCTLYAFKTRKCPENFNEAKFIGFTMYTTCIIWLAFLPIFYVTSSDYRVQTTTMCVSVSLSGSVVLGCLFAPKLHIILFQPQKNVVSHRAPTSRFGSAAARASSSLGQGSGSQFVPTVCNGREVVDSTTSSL
Kind of series: [35S]-GTPγS binding assay, allosteric activator activity with CHO cell membranes. Type of series: biochemical. To be noted: membranes of CHO cells expressing human mGluR2, 1 μM glutamate; read-out: GTPgS EC50. Background: GTPγS resists hydrolysis and so accumulates on activated G proteins.

Chain of hERG ion channel (Q12809 whole entry): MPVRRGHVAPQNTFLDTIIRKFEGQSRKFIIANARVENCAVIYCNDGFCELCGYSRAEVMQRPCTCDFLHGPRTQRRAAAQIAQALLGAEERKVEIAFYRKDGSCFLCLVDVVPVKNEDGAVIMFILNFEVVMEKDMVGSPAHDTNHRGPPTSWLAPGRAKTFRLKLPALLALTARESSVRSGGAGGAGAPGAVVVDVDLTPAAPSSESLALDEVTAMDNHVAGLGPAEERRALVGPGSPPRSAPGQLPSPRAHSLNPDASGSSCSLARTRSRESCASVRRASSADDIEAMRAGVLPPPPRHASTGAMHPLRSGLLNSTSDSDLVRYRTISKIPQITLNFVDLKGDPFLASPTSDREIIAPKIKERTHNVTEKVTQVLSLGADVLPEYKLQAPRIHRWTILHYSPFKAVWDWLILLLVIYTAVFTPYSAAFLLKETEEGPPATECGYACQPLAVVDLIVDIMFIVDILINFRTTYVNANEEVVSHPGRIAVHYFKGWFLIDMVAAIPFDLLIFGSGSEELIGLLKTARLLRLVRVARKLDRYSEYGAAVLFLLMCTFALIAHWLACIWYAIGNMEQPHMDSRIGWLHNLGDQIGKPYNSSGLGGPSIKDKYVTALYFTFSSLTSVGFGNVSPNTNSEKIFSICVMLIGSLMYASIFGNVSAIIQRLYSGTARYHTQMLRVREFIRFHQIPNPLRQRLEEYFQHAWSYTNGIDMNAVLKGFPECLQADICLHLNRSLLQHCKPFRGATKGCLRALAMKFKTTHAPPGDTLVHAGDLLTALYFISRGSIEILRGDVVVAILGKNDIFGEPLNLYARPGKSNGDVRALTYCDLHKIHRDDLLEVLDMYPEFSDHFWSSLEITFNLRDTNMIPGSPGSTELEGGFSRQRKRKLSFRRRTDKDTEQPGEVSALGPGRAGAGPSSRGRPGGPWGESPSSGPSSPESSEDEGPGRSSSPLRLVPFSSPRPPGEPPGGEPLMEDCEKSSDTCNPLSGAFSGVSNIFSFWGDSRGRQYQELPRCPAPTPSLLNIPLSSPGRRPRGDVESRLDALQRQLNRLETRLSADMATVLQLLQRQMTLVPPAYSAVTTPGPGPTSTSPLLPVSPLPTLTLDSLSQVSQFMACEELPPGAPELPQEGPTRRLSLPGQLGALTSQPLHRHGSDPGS
Protocol for human mGluR2: A [^35S]-GTPγS binding assay was used to functionally assay mGluR2 receptor activation. The allosteric activator activity of compounds at the human mGluR2 receptor were measured using a [^35S]-GTPγS binding assay with membranes prepared from CHO cells which stably express the human mGluR2. The assay is based upon the principle that agonists bind to G-protein coupled receptors to stimulate GDP-GTP exchange at the G-protein. Since [^35S]-GTPγS is a non-hydrolyzable GTP analog, it can be used to provide an index of GDP-GTP exchange and, thus, receptor activation. The GTPγS binding assay therefore provides a quantitative measure of receptor activation.
Membranes were prepared from CHO cells stably transfected with human mGluR2. Membranes (30 μg protein) were incubated with test compound (3 nM to 300 μM) for 15 minutes at room temperature prior to the addition of 1 μM glutamate, and incubated for 30 min at 30° C. in 500 μl assay buffer (20 mM HEPES, 100 mM NaCl, 10 mM MgCl2), containing 30 μM GDP and 0.1 nM [^35S]-GTPγS (1250 Ci/mmol). Reactions were carried out in triplicate in 2 ml polypropylene 96-well plates. Reactions were terminated by vacuum filtration using a Packard 96-well harvester and Unifilter-96, GF/B filter microplates. The filter plates were washed 4×1.5 ml with ice-cold wash buffer (10 mM sodium phosphate buffer, pH 7.4). The filter plates were dried and 35 μl of scintillation fluid (Microscint 20) was added to each well. The amount of radioactivity bound was determined by counting plates on the Packard TopCount. Data was analyzed using GraphPad Prism, and EC50 and Emax values (relative to the maximum glutamate effect) were calculated using non-linear regression.

The compound `Cc1cc(-c2nc(CN3CCNCC3)no2)cc2c1C(=O)N(Cc1ccc(OC(F)(F)F)cc1)C2` [Example 1, 7-Methyl-5-(3-piperazin-1-ylmethyl-[1,2,4]oxadiazol-5-yl)-2-(4-trifluoromethoxybenzyl)-2,3-dihydroisoindol-1-one] showed a hERG on hERG ion channel of 11.0 µM. For the same compound, the solubility at 24 h in series [1] stood at 44.9 µM (≈ 21.9 µg/mL).
In turn, `Cc1cc(-c2nc(CN3C[C@@H]4C[C@H]3CN4)no2)cc2c1C(=O)N(Cc1ccc(Cl)cc1)C2` [Example 2, 2-(4-Chloro-benzyl)-5-[3-(2,5-diaza-bicyclo[2.2.1]hept-2-ylmethyl)-[1,2,4]oxadiazol-5-yl]-7-methyl-2,3-dihydro-isoindol-1-one] gave a hERG at hERG ion channel of 33.0 µM. Moreover, on human mGluR2, the EC50 was determined as 206 nM. Further, in series [1], the concentration in solution (solubility at 24 h) was 336 µM (≈ 151 µg/mL).
`Cc1cc(-c2nc(CN3CCNC(C)C3)no2)cc2c1C(=O)N(Cc1ccc(Cl)cc1)C2` (centres unmarked) [Example 3, 2-(4-Chloro-benzyl)-7-methyl-5-[3-(3-methyl-piperazin-1-ylmethyl)-[1,2,4]oxadiazol-5-yl]-2,3-dihydro-isoindol-1-one] returned a hERG at hERG ion channel of 12.0 µM. Besides, on human mGluR2, the EC50 came out at 154 nM. In series [1], the concentration in solution (solubility at 24 h) was 396 µM (≈ 179 µg/mL).
Turning to `Cc1cc(-c2nc(CN3CCNCC3)no2)cc2c1C(=O)N(Cc1ccc(Cl)cc1)C2` [Example 4, 2-(4-Chloro-benzyl)-7-methyl-5-(3-piperazin-1-ylmethyl-[1,2,4]oxadiazol-5-yl)-2,3-dihydro-isoindol-1-one], the hERG at hERG ion channel was determined as 25.0 µM. Moreover, the EC50 at human mGluR2 came to 378 nM. In series [1], this compound gave a solubility at 24 h greater than 500 µM.
`Cc1cc(-c2nc(CN3CCNC[C@@H]3C)no2)cc2c1C(=O)N(Cc1ccc(Cl)cc1)C2` [Example 5, 2-(4-Chloro-benzyl)-7-methyl-5-[3-(2-methyl-piperazin-1-ylmethyl)-[1,2,4]oxadiazol-5-yl]-2,3-dihydro-isoindol-1-one]: the hERG on hERG ion channel worked out at 12.6 µM. The EC50 at human mGluR2 was 352 nM. In addition, in series [1], the concentration in solution (solubility at 24 h) was 384 µM (≈ 174 µg/mL).
The compound `Cc1cc(-c2nc(CN3CCNC[C@H]3C)no2)cc2c1C(=O)N(Cc1ccc(Cl)cc1)C2` [Example 6, 2-(4-Chloro-benzyl)-7-methyl-5-[3-(2-methyl-piperazin-1-ylmethyl)-[1,2,4]oxadiazol-5-yl]-2,3-dihydro-isoindol-1-one] had a hERG at hERG ion channel of 18.7 µM. In addition, the EC50 at human mGluR2 was found to be 317 nM. In series [1], this compound came in with a solubility at 24 h greater than 500 µM.

As a reminder, the solubility is the concentration that dissolves in the medium under given conditions. A lower solubility goes with a poorly soluble substance. In general, EC50 refers to the concentration needed to bring the measured effect to its halfway point.
